The target in one experiment is CpOGA (Clostridium perfringens, UniProt Q0TR53). The experiment in a line: biochemical. Format: binding.
Another experiment deals with T1, human OGA (hOGA) (Homo sapiens, UniProt O60502).
T1 sequence (O60502 60-336 limits assumed): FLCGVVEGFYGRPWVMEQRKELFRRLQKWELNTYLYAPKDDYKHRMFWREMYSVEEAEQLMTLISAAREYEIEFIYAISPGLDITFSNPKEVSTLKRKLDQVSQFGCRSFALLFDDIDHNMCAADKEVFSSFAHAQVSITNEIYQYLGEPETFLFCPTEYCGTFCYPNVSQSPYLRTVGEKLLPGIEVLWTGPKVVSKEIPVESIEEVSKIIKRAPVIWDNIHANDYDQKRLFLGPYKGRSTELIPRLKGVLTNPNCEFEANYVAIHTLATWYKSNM
The experiment in a line: Fluorescence polarization displacement of GlcNAcstatin BF from hOGA. Format: binding. The settings on record: FP displacement, 50 nM GlcNAcstatin BF, 250 nM hOGA, TBS pH 7.5.

pKi: −log10 of the molar value.

Chain of CpOGA (Q0TR53 31-1001 limits assumed): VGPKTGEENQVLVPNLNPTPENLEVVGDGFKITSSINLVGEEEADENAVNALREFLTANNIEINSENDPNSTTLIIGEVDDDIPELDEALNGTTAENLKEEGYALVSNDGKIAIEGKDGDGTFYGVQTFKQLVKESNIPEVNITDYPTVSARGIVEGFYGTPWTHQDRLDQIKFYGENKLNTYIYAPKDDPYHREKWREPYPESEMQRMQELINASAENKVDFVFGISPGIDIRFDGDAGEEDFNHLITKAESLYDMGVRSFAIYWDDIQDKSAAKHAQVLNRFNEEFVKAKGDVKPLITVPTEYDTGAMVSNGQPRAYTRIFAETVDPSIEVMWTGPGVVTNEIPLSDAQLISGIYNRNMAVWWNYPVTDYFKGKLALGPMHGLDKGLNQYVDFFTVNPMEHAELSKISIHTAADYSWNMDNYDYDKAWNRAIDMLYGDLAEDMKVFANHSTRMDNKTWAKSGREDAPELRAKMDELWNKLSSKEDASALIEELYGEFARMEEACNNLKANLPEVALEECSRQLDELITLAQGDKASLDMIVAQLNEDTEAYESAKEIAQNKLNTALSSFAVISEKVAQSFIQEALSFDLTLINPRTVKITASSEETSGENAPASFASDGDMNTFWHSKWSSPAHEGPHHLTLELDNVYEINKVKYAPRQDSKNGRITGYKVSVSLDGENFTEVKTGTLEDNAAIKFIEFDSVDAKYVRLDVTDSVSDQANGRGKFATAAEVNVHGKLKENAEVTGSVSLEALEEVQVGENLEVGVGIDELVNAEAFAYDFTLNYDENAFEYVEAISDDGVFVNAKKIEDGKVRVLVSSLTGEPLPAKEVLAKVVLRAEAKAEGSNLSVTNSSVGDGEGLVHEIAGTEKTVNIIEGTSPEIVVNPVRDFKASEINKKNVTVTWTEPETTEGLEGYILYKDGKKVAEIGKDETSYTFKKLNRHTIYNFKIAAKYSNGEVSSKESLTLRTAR

Consider `FC(F)(F)C1=NCCNC=C1` [5TFD, 5-(trifluoromethyl)-2,3-dihydro-1H-1,4-diazepine], for which, on CpOGA, the pKi is 3.84.

On to `CC(=O)N[C@H]1c2nc(CCc3ccccc3)cn2[C@H](CO)[C@@H](O)[C@@H]1O` [GlcNAcstatin B], for which the pKi on human OGA (hOGA) is 7.63.

(Values after article PMC7611149 (ACS chemical biology, 2018).)
